These results are taken from ChEMBL document CHEMBL4130363, “Synthesis and pharmacological evaluation of benzamide derivatives as potent and selective sigma-1 protein ligands” (Eur J Med Chem, 2017).

The target in experiment [1] is 5-hydroxytryptamine receptor 2B (Homo sapiens) (UniProt P41595). The experiment can be described thus: Agonist activity at recombinant human 5-HT2B at 10 uM by aequorin reporter based assay relative to agonist. The experiment is classed as functional.
Experiment [2] deals with Kappa-type opioid receptor (Homo sapiens) (UniProt P41145). The experiment can be described thus: Agonist activity at recombinant human kappa-type opioid receptor at 10 uM by GTPgamma[35S] binding-based assay relative to agonist. The experiment is classed as functional. On the technique in general: GTPγS is a poorly hydrolysed GTP analogue; its binding reports G protein activation.
Chain of Kappa-type opioid receptor (Homo sapiens) (P41145 whole entry): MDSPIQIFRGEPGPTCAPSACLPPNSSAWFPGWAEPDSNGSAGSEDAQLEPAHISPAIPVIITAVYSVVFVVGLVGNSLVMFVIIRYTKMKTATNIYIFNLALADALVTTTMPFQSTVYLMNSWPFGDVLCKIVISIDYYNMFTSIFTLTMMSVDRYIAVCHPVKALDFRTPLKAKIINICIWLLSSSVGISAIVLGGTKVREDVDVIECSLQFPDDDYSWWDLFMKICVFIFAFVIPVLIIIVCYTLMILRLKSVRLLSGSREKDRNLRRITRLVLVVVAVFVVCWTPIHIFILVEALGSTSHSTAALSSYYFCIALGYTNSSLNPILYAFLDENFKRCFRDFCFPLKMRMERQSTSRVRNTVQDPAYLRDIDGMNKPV

Experiment [3] addresses T1, Alpha-1A adrenergic receptor (Homo sapiens) (UniProt P35348).
T1 sequence (whole entry): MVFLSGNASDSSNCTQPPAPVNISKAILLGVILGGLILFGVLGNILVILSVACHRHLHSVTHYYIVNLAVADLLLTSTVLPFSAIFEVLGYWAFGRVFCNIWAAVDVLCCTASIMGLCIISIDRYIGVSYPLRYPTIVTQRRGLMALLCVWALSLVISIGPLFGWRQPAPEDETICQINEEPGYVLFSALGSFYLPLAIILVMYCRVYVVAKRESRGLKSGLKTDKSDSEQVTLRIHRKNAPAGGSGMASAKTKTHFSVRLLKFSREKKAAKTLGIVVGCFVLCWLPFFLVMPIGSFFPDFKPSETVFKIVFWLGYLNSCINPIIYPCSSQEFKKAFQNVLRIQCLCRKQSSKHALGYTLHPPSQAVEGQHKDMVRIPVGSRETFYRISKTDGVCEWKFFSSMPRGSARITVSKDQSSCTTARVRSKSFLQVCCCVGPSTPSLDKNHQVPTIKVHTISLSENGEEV
Briefly: Antagonist activity at recombinant human alpha-1a adrenergic receptor assessed as inhibition of agonist-induced […] reporter based assay. The experiment is classed as functional.

The target of experiment [4] is T2, Neuropeptide Y receptor type 1 (Homo sapiens) (UniProt P25929).
T2 sequence (whole entry): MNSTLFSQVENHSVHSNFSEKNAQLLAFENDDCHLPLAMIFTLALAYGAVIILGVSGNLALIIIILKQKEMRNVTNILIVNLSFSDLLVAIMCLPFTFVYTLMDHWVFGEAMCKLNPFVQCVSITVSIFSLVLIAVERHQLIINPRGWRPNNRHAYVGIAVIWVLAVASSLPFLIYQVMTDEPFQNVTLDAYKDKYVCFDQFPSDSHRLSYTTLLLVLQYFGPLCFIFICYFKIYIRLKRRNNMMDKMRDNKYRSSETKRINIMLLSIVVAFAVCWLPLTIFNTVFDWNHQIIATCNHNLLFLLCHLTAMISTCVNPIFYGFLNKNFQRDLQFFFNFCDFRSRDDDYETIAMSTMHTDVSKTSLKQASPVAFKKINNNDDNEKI
The experiment can be described thus: Agonist activity at recombinant human NPY1R assessed as induction of cAMP levels at 10 uM by HTRF assay relative to agonist. Format: functional.

For experiment [5], the target named is D(1A) dopamine receptor (Homo sapiens) (UniProt P21728). The experiment can be described thus: Agonist activity at recombinant human dopamine D1 receptor assessed as induction of cAMP levels at 10 uM by HTRF assay relative to agonist. Format: functional.
Chain of D(1A) dopamine receptor (Homo sapiens) (P21728 whole entry): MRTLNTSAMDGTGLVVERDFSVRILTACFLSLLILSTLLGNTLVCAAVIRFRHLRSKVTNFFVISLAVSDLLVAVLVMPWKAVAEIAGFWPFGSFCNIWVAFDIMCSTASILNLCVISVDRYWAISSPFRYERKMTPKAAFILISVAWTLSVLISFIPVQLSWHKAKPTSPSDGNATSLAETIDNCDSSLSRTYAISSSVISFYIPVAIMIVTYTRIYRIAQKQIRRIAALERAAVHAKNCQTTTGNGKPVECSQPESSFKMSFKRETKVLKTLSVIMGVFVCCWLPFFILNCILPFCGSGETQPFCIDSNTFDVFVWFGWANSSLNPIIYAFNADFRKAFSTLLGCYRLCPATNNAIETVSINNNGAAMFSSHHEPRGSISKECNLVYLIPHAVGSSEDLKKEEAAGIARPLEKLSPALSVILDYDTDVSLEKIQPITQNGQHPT
In experiment [6] the target is Mu-type opioid receptor (Homo sapiens) (UniProt P35372). The experiment can be described thus: Agonist activity at recombinant human mu-type opioid receptor at 10 uM by GTPgamma[35S] binding-based assay relative to agonist. Format: functional.
Chain of Mu-type opioid receptor (Homo sapiens) (P35372 whole entry): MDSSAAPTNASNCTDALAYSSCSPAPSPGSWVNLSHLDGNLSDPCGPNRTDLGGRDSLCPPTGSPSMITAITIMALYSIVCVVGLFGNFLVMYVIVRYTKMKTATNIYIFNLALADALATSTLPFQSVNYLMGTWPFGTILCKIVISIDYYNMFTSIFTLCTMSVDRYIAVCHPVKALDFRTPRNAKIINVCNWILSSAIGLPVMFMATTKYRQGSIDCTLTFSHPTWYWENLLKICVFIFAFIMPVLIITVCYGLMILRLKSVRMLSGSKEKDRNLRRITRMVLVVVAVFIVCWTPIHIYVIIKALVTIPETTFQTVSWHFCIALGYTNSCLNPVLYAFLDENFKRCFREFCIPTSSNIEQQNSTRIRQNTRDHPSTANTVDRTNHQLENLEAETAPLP
The target in experiment [7] is 5-hydroxytryptamine receptor 2B (Homo sapiens) (UniProt P41595). Briefly: Antagonist activity at recombinant human 5-HT2B assessed as inhibition of agonist-induced effect at 10 uM by aequorin reporter based assay. The experiment is classed as functional.
Experiment [8] deals with T3, Muscarinic acetylcholine receptor M2 (Homo sapiens) (UniProt P08172).
T3 sequence (whole entry): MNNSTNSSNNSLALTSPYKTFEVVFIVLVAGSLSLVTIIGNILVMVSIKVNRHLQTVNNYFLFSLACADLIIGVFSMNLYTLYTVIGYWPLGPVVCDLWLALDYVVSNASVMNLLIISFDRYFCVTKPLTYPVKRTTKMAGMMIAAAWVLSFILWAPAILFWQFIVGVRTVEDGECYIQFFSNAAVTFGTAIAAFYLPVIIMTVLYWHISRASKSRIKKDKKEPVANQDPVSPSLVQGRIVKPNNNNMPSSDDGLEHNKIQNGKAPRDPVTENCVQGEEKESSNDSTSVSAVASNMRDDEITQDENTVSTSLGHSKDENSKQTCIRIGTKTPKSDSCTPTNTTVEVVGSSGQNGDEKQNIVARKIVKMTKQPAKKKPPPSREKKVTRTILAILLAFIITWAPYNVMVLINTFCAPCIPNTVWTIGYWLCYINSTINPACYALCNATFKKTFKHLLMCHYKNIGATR
The experiment can be described thus: Antagonist activity at human muscarinic M2 receptor assessed as inhibition of agonist-induced effect at 10 uM by GTPgamma[35S] binding-based assay. The experiment is classed as functional.

Experiment [9] addresses T4, Alpha-2A adrenergic receptor (Homo sapiens) (UniProt P08913).
T4 sequence (whole entry): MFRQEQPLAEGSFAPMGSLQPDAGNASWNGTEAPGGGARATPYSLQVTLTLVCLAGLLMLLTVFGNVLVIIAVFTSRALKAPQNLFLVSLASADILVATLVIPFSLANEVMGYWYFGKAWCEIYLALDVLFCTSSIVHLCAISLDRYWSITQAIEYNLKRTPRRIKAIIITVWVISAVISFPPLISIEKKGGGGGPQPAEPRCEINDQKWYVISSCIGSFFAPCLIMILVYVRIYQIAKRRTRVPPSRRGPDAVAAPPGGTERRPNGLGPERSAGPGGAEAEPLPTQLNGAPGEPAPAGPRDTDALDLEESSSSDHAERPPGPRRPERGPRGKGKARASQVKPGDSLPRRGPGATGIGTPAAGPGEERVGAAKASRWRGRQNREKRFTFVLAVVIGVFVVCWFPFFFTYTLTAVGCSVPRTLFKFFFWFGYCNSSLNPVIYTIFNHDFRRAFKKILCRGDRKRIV
The experiment can be described thus: Antagonist activity at recombinant human alpha-2a adrenergic receptor assessed as inhibition of agonist-induced effect at 10 uM by GTPgamma[35S] binding-based assay. The experiment is classed as functional.

Experiment [10] deals with T5, 5-hydroxytryptamine receptor 3A (Homo sapiens) (UniProt P46098).
T5 sequence (whole entry): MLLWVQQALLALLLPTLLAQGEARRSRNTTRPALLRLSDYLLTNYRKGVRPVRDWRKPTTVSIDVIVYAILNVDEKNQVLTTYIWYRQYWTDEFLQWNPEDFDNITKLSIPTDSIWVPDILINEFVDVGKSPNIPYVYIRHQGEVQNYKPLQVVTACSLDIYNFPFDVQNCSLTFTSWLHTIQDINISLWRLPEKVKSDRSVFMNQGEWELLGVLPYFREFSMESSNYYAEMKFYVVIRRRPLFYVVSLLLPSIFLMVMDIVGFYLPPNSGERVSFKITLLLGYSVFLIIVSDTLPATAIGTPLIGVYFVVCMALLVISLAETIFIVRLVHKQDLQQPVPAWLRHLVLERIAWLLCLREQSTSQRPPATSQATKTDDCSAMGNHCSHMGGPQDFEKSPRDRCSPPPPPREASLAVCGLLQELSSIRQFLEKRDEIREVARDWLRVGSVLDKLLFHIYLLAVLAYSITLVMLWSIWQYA
The experiment can be described thus: Antagonist activity at recombinant human 5-HT3 assessed as inhibition of agonist-induced effect at 10 uM by aequorin reporter based assay.

The structures appear in SMILES notation.

By inhibition is commonly meant the change of the read-out against control, counted positive when it falls.

Chain of 5-hydroxytryptamine receptor 2B (Homo sapiens) (P41595 whole entry): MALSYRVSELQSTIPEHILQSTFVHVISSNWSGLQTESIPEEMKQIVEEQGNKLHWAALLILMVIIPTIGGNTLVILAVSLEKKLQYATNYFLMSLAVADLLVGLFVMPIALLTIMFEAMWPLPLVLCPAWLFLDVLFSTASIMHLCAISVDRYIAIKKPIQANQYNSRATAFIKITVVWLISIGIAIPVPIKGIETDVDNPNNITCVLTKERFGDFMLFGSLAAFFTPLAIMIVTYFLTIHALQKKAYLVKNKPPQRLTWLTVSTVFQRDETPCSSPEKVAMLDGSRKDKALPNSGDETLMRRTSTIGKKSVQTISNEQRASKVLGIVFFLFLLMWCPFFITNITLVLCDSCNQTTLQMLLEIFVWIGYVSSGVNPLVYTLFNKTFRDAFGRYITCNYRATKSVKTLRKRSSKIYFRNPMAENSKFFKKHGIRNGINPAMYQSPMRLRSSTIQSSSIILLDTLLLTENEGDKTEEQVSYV

As to `CCCc1ccc(C(=O)NCCCN(C)Cc2ccccc2)cc1`, the Activity was -3% in [1]; -2% in experiment [2]; 2% in experiment [4]; -2% in experiment [5]; 31% in [6]. The inhibition is 96% in experiment [3]; 75% in [7]; 36% in [8]; 37% in [9]; 90% in experiment [10].
Turning to `CN(CCCNC(=O)c1ccc(Cl)cc1)Cc1ccccc1`, the Activity in [1] is 1%; in experiment [2], 2%; in [4] it was 2%; in experiment [5] it was -7%; in experiment [6] it was 26%. For the same molecule, the inhibition in experiment [3] was 92%; in experiment [7] it was 58%; in experiment [8], 38%; in experiment [9] it was 50%; in experiment [10] it was 42%.
`CN(CCCNC(=O)c1ccc(Br)cc1)Cc1ccccc1`: the Activity in [1] was 2%; in experiment [2] it was 3%; in experiment [4] it was 5%; in experiment [5], -7%; in experiment [6], 39%. The inhibition in experiment [3] was determined as 93%; in experiment [7] it was 37%; in experiment [8] it was 28%; in [9], 42%; in experiment [10] it was 79%.
For the molecule `COc1cccc(C(=O)NCCCN(C)Cc2ccccc2)c1`, the Activity in experiment [1] is -2%; in experiment [2] it was 7%; in experiment [4], 0%; in [5], 8%; in experiment [6] it was 16%. The inhibition in experiment [3] amounted to 82%; in experiment [7], 26%; in experiment [8], 26%; in [9], 20%; in [10] it was 28%.
On to `CN(CCCNC(=O)c1ccc(C(F)(F)F)cc1)Cc1ccccc1`, for which the Activity in experiment [1] is -2%; in experiment [2], 1%; in [4], 9%; in [5] it was -4%; in experiment [6], 43%. Moreover, the inhibition in experiment [3] was 79%; in experiment [7], 66%; in experiment [8] it was 20%; in experiment [9], 49%; in [10], 75%.
As for `CN(CCCNC(=O)c1ccc([N+](=O)[O-])cc1)Cc1ccccc1`, the Activity in experiment [1] was -2%; in [2] it was 2%; in [4], 1%; in experiment [5], -1%; in experiment [6] it was 31%. Also, the inhibition in [3] stood at 95%; in experiment [7], 26%; in experiment [8], 15%; in experiment [9], 25%; in [10], 23%.
With `CN(CCNC(=O)c1ccc(C#N)cc1)Cc1ccccc1`, the Activity is -4% in experiment [1]; 5% in [2]; 4% in [4]; 9% in experiment [5]; 66% in experiment [6]. The inhibition in [3] stood at 56%; in [7], 16%; in experiment [8], 26%; in experiment [9], 19%; in experiment [10], 75%.
For `COc1ccc(C(=O)NCCCN(C)Cc2ccccc2)cc1`, the Activity was determined as 2% in experiment [1]; 8% in experiment [2]; 1% in experiment [4]; 4% in experiment [5]; 16% in experiment [6]. Moreover, the inhibition is 52% in [3]; 16% in experiment [7]; 29% in experiment [8]; 23% in experiment [9]; 19% in [10].
In the case of `CN(CCNC(=O)c1ccc(Cl)cc1)Cc1ccccc1`, the Activity in experiment [1] was 0%; in [2], 5%; in experiment [4] it was -2%; in [5] it was -4%; in [6], 62%. Besides, the inhibition in experiment [3] is 96%; in experiment [7] it was 66%; in experiment [8], 28%; in experiment [9], 45%; in experiment [10] it was 51%.
As for `CN(CCCNC(=O)c1ccc(Cl)cc1)CCc1ccccc1`, the Activity was 38% in [1]; -1% in [2]; -4% in [4]; -6% in experiment [5]; 22% in experiment [6]. Besides, the inhibition in experiment [3] came out at 95%; in experiment [7] it was 92%; in experiment [8] it was 54%; in [9] it was 105%; in [10], 62%.
In the case of `CN(CCCNC(=O)c1cccc(Br)c1)Cc1ccccc1`, the Activity in [1] was -2%; in experiment [2] it was 6%; in experiment [4] it was 1%; in experiment [5], -5%; in [6], 15%. The inhibition in experiment [3] stood at 97%; in [7], 78%; in experiment [8], 30%; in [9], 57%; in [10] it was 83%.
As to `CN(CCNC(=O)c1ccc([N+](=O)[O-])cc1)Cc1ccccc1`, the Activity in experiment [1] was -1%; in experiment [2], 8%; in experiment [4], 3%; in experiment [5], 14%; in [6], 60%. Moreover, the inhibition in experiment [3] is 62%; in experiment [7] it was 35%; in [8] it was 29%; in experiment [9], 32%; in [10], 30%.
